Measured values from patent US8802597B2, “Herbicidal pyrimidines” (E I du Pont de Nemours and Company, priority 2003, dated 2014).

Key:
Assay type in all cases: in vivo
[1] = test system: Surinam grass (Brachiaria decumbens); assay: Test B pre/postemergence
Summary of the method: (§1)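 Under greenhouse conditions, seeded pots and young plants (1- to 4-leaf, 2 to 18 cm) were treated at the same time with test chemicals in a non-phytotoxic solvent mixture containing surfactant. Response was assessed visually after 13 to 15 days, from 0 (no effect) to 100 (complete control).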

[2] = test system: barnyardgrass (Echinochloa crus-galli); assay: Test B pre/postemergence
Summary of the method: as §1

corn (Zea mays) = assay: Test B pre/postemergence
Summary of the method: as §1

[3] = test system: giant foxtail (Setaria faberii); assay: Test B pre/postemergence
Summary of the method: as §1

[4] = test system: pigweed (Amaranthus retroflexus); assay: Test B pre/postemergence
Summary of the method: as §1

[5] = test system: cocklebur (Xanthium strumarium); assay: Test B pre/postemergence
Summary of the method: as §1

[6] = test system: crabgrass (Digitaria sanguinalis); assay: Test B pre/postemergence
Summary of the method: as §1

[7] = test system: wheat (Triticum aestivum); assay: Test B pre/postemergence
Summary of the method: as §1

[8] = test system: lambsquarters (Chenopodium album); assay: Test B pre/postemergence
Summary of the method: as §1

[9] = test system: velvetleaf (Abutilon theophrasti); assay: Test B pre/postemergence
Summary of the method: as §1

[10] = test system: morningglory (Ipomoea coccinea); assay: Test B pre/postemergence
Summary of the method: as §1

wild oat (Avena fatua) = assay: Test B postemergence
Summary of the method: as §1

[11] = test system: blackgrass (Alopecurus myosuroides); assay: Test B postemergence
Summary of the method: as §1

[12] = test system: barnyardgrass (Echinochloa crus-galli); assay: Test B flooded paddy test; conditions: Flood, 1000 g ai/ha; scale 0 (no effect) to 100 (complete control)
Summary of the method: (§2)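 Visual injury scoring (0 = no effect, 100 = complete control) versus controls made 13 to 15 days after treatment in the greenhouse. Test species were grown in flooded paddy to the 2-leaf stage: rice, barnyardgrass, umbrella sedge, duck salad.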

rice (Oryza sativa) = assay: Test B flooded paddy test; conditions: Flood, 1000 g ai/ha; scale 0 to 100
Summary of the method: as §2

[13] = test system: umbrella sedge (Cyperus difformis); assay: Test B flooded paddy test; conditions: Flood, 1000 g ai/ha; scale 0 to 100
Summary of the method: as §2

[14] = test system: duck salad (Heteranthera limosa); assay: Test B flooded paddy test; conditions: Flood, 1000 g ai/ha; scale 0 to 100
Summary of the method: as §2

[15] = Postemergence, 125 g ai/ha, scale 0 to 100 (0 no effect, 100 complete control)
[16] = Postemergence, 500 g ai/ha, scale 0 to 100
[17] = Preemergence, 125 g ai/ha, scale 0 to 100 (0 no effect, 100 complete control)
[18] = Preemergence, 500 g ai/ha, scale 0 to 100 (0 no effect, 100 complete control)
[19] = 125 g ai/ha, scale 0 to 100 (0 no effect, 100 complete control)

CCOC(=O)Cc1nc(C2CC2)nc(N=CN(C)C)c1Br [Compound 33]
Surinam Grass plant response rating [1, 15]: 0
Plant response rating, Surinam Grass [1, 16]: 0
Plant response rating, Surinam Grass [1, 17]: 0
Surinam Grass plant response rating [1, 18]: 40
Barnyardgrass plant response rating [2, 15]: 0
Plant response rating, Barnyardgrass [2, 16]: 20
Plant response rating, Barnyardgrass [2, 17]: 20
Barnyardgrass plant response rating [2, 18]: 50
Corn plant response rating (corn (Zea mays); [15]): 0
Plant response rating, Corn (corn (Zea mays); [16]): 0
Plant response rating, Corn (corn (Zea mays); [17]): 10
Corn plant response rating (corn (Zea mays); [18]): 30
Foxtail, Giant plant response rating [3, 15]: 10
Plant response rating, Foxtail, Giant [3, 16]: 40
Plant response rating, Foxtail, Giant [3, 17]: 0
Foxtail, Giant plant response rating [3, 18]: 40
Pigweed plant response rating [4, 15]: 60
Plant response rating, Pigweed [4, 16]: 80
Plant response rating, Pigweed [4, 17]: 80
Pigweed plant response rating [4, 18]: 90
Cocklebur plant response rating [5, 15]: 60
Plant response rating, Cocklebur [5, 16]: 80
Plant response rating, Cocklebur [5, 17]: 80
Cocklebur plant response rating [5, 18]: 90
Crabgrass plant response rating [6, 15]: 10
Plant response rating, Crabgrass [6, 16]: 20
Plant response rating, Crabgrass [6, 17]: 0
Crabgrass plant response rating [6, 18]: 50
Wheat plant response rating [7, 15]: 20
Plant response rating, Wheat [7, 16]: 20
Plant response rating, Wheat [7, 17]: 0
Wheat plant response rating [7, 18]: 50
Lambsquarters plant response rating [8, 15]: 60
Plant response rating, Lambsquarters [8, 16]: 70
Plant response rating, Lambsquarters [8, 17]: 90
Lambsquarters plant response rating [8, 18]: 100
Velvetleaf plant response rating [9, 15]: 40
Plant response rating, Velvetleaf [9, 16]: 50
Plant response rating, Velvetleaf [9, 17]: 70
Velvetleaf plant response rating [9, 18]: 80
Morningglory plant response rating [10, 15]: 40
Plant response rating, Morningglory [10, 16]: 70
Plant response rating, Morningglory [10, 17]: 0
Morningglory plant response rating [10, 18]: 90
Oat, Wild plant response rating (wild oat (Avena fatua); [19]): 20
Plant response rating, Oat, Wild (wild oat (Avena fatua); 500 g ai/ha, scale 0 to 100): 20
Blackgrass plant response rating [11, 19]: 40
Plant response rating, Blackgrass ([11]; 500 g ai/ha, scale 0 to 100): 40
Plant response rating, Barnyardgrass [12]: 0
Plant response rating, Rice (rice (Oryza sativa)): 0
Plant response rating, Sedge, Umbrella [13]: 0
Plant response rating, Ducksalad [14]: 0
